Experimental data from patent US6451836B1, “Method of inhibiting liver glycogen phosphorylase with 2-alkylpyrrolidines” (Novo Nordisk A/S, priority 1995, dated 2002).
Read-outs that look alike come from different tables or passages of the source.

Assays:
type 2 diabetic patients = conditions: Sels et al. (Netherland J.Med. 44 (1994), 198); cited from earlier work
female ob/OB mice = test: glucagon mediated increase in blood glucose in mice; type: in vivo; conditions: for Delta plasma glucose: glucagon s.c., female ob/OB mice fasted 3 hours, averages ± S.D., N = 5, control 6.3 ± 1.0; for reduction of blood glucose (in words): glucagon mediated increase in blood glucose in mice, Table 1
Description: For in vivo studies, female ob/OB mice (20 g) fasted for 3 hours were used. Test compounds or NaCl (0.9%; controls) were administered intraveneously (hereinafter designated i.v.). Glucagon were administered subcutaneously (herein-after designated s.c.) in order to increase hepatic glucose output derived from glycogen. Blood samples were drawn from the orbital vain and analyzed for glucose using a glucose oxidase method.

α-1,6-glucosidase [1] = biological target: T1, α-1,6-glucosidase (Homo sapiens, UniProt P35573); conditions: From: Fleet et al. (Tetrahedron 20 (1986), 5685); read-out: 1,6-glucosidase, concentration resulting in half maximal activity (I.C.50); cited from earlier work
T1 sequence (P35573 whole entry): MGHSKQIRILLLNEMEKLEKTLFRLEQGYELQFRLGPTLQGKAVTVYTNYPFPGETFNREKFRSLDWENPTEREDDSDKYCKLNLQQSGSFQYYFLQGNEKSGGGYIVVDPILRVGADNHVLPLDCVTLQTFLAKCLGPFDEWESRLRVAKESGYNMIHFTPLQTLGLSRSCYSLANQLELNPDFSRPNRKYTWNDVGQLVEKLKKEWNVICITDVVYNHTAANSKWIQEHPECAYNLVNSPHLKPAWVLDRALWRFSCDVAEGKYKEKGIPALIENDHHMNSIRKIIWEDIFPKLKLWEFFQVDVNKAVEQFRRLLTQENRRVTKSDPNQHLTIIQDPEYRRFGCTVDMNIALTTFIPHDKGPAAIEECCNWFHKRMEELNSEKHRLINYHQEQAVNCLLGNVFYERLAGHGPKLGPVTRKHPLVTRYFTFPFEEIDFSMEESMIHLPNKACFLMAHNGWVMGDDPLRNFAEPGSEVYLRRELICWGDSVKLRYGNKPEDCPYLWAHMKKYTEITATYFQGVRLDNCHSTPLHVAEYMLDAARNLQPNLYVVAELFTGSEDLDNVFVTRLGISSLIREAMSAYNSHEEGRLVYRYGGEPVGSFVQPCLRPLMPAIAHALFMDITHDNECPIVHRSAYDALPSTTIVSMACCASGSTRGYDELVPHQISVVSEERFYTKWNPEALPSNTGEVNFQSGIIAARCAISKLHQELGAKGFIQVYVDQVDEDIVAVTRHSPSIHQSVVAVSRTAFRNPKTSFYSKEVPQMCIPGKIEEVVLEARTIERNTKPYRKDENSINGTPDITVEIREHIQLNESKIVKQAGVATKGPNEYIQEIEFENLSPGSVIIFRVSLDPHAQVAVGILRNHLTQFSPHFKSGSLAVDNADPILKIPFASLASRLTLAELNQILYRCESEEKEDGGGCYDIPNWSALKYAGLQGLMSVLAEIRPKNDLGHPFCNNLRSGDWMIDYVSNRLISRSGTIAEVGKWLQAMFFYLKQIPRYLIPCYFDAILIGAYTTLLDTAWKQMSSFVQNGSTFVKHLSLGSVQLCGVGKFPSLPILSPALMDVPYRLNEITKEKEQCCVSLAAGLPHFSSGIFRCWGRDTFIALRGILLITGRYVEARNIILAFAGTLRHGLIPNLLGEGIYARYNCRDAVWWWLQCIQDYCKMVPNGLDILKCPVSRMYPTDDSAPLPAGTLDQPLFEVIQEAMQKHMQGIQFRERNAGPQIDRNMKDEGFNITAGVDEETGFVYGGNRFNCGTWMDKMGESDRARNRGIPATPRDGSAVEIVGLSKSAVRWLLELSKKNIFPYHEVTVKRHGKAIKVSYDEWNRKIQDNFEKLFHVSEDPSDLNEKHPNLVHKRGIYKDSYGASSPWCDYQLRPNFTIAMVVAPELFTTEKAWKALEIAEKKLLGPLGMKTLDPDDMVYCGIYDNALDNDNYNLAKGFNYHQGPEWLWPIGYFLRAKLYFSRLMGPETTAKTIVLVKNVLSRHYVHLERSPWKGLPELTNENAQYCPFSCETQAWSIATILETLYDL

Rat hepatocytes = test: baseline and glucagon stimulated glucose production from cultured liver cells; type: cell-based; conditions: for Glucose production without glucagon: relative to the basal glucose production (no addition 100%); for Glucose production without glucagon / Glucose production with glucagon (0.5 nM): 70 minutes; for Glucose production with glucagon (0.5 nM): relative to the basal glucose production (no addition 233%); for inhibition of hepatocyte glucose production (in words): basal and glucagon stimulated
Description: During the last 24 hours, the hepatocytes were cultured in the presence of high levels of insulin (5 nM) and glucose (15 mM), which result in the incorporation of glucose into glycogen. Therefore, at the time of the experiment, the cells mimic livers from fed animals. Experiments were initiated after 48 hours of culture by 2 times wash of cells and addition of a 20 mM HEPES experimental buffer including balanced salts, but without glucose. The test compound was added simultaneously with the experimental buffer. To some cultures, glucagon (0.5 nM) was added after 10 minutes in order to stimulate glucose production from liver cells. The glucose released into the media, reflecting the glucose production of the liver cells, was measured 70 minutes after the start of the experiment and standardized to cellular DNA content.

Phosphorylase = biological target: T2, Phosphorylase (Rattus norvegicus, UniProt P09811); test: activity of phosphorylase; type: biochemical; conditions: read-out: Phosphorlyase, concentration resulting in half maximal activity (I.C.50)
T2 sequence (P09811 2-850): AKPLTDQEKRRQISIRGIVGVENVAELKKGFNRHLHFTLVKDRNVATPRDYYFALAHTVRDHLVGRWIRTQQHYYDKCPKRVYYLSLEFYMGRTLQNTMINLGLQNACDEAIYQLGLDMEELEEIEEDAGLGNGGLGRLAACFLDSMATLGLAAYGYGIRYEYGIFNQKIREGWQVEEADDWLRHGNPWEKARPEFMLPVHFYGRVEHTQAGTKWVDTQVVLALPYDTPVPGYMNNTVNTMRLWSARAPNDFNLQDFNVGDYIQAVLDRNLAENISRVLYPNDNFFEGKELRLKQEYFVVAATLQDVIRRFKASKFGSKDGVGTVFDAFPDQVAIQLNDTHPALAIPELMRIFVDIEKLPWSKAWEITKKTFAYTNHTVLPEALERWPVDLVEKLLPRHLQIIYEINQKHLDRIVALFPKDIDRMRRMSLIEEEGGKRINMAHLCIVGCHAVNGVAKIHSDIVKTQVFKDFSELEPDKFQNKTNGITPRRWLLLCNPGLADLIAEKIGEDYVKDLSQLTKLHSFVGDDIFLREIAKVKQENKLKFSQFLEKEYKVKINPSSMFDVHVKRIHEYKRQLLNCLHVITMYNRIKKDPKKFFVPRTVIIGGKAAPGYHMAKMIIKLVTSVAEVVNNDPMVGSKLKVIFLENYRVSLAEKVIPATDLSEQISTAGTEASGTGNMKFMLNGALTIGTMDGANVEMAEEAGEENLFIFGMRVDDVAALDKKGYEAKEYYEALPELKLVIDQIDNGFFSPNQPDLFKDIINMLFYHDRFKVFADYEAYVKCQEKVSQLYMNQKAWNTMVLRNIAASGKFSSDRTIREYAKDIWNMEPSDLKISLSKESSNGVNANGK
Description: Phosphorylase was either purchased from Sigma or extracted from rat livers according to Stalmans et. al. (Eur.J.Biochem. 49 (1974), 415). The activity of phosphorylase was determined as described by Bergmeyer (1983; in: Meth. of Enzymatic Analysis, 2, 293-295, Weinheim, (ed.) Verlag Chemie).

α-1,6-glucosidase [2] = biological target: T1, α-1,6-glucosidase; test: activity of the glycogen debranching enzyme, α-1,6-glucosidase; type: biochemical; conditions: read-out: 1,6-glucosidase, concentration resulting in half maximal activity (I.C.50)
Description: The activity of the glycogen debranching enzyme, α-1,6-glucosidase, was determined as described by Brown and Brown (1966; in : Meth. in Enzymology, 8, 515-524, Neufeld and Ginsburg (Eds.) Academic Press).

Row | IC50 (Phosphorylase) [µM] | IC50 (α-1,6-glucosidase [2]) [µM] | Compound | fasting plasma glucose after treatment (in words) (type 2 diabetic patients) | Delta plasma glucose (female ob/OB mice; 8 mg/kg i.v.) [mmol/L] | reduction of blood glucose (in words) (female ob/OB mice) | IC50 (α-1,6-glucosidase [1]) [µM] | Glucose production without glucagon (Rat hepatocytes; 1 μM) [%] | Glucose production with glucagon (0.5 nM) (Rat hepatocytes; 1 μM) [%] | inhibition of hepatocyte glucose production (in words) (Rat hepatocytes) | Delta plasma glucose (female ob/OB mice; 50 mg/kg i.v.) [mmol/L] | Glucose production without glucagon (Rat hepatocytes; 50 μM) [%] | Glucose production with glucagon (0.5 nM) (Rat hepatocytes; 50 μM) [%]
1 | – | – | OCCN1C[C@H](O)[C@@H](O)[C@H](O)[C@H]1CO [miglitol] | not reduced | – | – | – | – | – | – | – | – | –
2 | – | – | Cl.OC[C@H]1NC[C@@H](O)[C@@H]1O [Compound 2, (2R,3R,4R)-3,4-Dihydroxy-2-(hydroxymethyl)pyrrolidine, hydrochloride] | – | 0.5 ± 0.6 | potent principle for reducing blood glucose | 0.18 | 19 | 41 | inhibit basal and glucagon stimulated hepatocyte glucose production | – | – | –
3 | > 200 | 1.1 | OC[C@H]1NC[C@H](O)[C@@H](O)[C@@H]1O [dNOJ, 1-deoxynojirimycin] | – | – | unable to reduce blood glucose | – | – | – | insufficient to suppress hepatic glucose production | 5.7 ± 1.2 | 92 | 195
